Reference: ChEMBL document CHEMBL5465560, “Selectivity Literature for EUbOPEN Chemogenomic Library” (2024)

Columns and labels:
[1] = biological target: Serine/threonine-protein kinase pim-2 (Homo sapiens, UniProt Q9P1W9); experiment: Selectivity interaction (KinomeScan (DiscoverX)) EUB0000229b PIM2; conditions: at 10 µM
EML4-ALK (Homo sapiens) = EML4-ALK (Homo sapiens) (UniProt Q9UM73+Q9HC35); experiment: Selectivity interaction (ProQinase) EUB0000171b ALK; type: protein assay; conditions: at 1 µM
[2] = biological target: T1, Tyrosine-protein kinase receptor TYRO3 (Homo sapiens) (UniProt Q06418); experiment: Selectivity interaction (ProQinase) EUB0000171b TYRO3
T1 sequence (whole entry): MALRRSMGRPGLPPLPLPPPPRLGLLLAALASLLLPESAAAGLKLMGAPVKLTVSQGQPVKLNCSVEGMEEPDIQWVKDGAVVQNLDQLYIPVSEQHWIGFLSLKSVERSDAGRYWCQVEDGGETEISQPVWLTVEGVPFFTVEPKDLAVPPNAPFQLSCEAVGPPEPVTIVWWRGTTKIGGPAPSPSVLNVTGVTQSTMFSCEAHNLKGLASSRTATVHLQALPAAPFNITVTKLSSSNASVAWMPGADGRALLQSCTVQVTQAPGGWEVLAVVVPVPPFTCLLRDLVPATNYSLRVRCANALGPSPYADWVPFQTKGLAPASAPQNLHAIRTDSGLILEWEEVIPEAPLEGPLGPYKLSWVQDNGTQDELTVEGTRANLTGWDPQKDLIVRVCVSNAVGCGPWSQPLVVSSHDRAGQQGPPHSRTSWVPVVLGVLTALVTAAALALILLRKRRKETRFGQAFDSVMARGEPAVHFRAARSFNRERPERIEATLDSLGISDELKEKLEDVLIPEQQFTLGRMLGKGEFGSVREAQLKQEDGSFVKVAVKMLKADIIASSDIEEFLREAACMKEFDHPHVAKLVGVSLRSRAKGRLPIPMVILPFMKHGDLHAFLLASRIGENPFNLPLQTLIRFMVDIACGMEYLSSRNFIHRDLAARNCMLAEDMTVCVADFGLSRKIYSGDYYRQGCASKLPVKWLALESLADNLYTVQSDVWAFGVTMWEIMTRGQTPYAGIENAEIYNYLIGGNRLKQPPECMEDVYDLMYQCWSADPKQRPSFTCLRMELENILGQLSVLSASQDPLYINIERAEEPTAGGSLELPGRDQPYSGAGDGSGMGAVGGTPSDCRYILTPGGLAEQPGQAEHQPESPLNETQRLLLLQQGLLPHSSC

[3] = biological target: Dual specificity mitogen-activated protein kinase kinase 1 (Homo sapiens, UniProt Q02750); experiment: Selectivity interaction (Kinase panel (literature)) EUB0001199aCl MAP2K1; conditions: at 1 µM
[4] = biological target: Serine/threonine-protein kinase pim-1 (Homo sapiens, UniProt P11309); experiment: Selectivity interaction (Kinase panel (literature)) EUB0001199aCl PIM1; conditions: at 1 µM
[5] = biological target: Cyclin-dependent kinase 16 (Homo sapiens) (UniProt Q00536); experiment: Selectivity interaction (ActivX KiNativ screen (kinase selectivity in THP-1 cell lysates)) EUB0000639a CDK16; type: subcellular; conditions: lysate, at 1 µM
[6] = biological target: Phosphatidylinositol 4-kinase beta (Homo sapiens, UniProt Q9UBF8); experiment: Selectivity interaction (ActivX KiNativ screen (kinase selectivity in THP-1 cell lysates)) EUB0000639a PI4KB; type: subcellular; conditions: lysate, at 0.04 µM
[7] = biological target: Mitogen-activated protein kinase 9 (Homo sapiens, UniProt P45984); experiment: Selectivity interaction (KinomeScan (DiscoverX)) EUB0000655a MAPK9; conditions: at 10 µM
[8] = biological target: T2, Dual specificity mitogen-activated protein kinase kinase 5 (Homo sapiens) (UniProt Q13163); experiment: Selectivity interaction (KinomeScan (DiscoverX)) EUB0000655a MAP2K5; conditions: at 10 µM
T2 sequence (whole entry): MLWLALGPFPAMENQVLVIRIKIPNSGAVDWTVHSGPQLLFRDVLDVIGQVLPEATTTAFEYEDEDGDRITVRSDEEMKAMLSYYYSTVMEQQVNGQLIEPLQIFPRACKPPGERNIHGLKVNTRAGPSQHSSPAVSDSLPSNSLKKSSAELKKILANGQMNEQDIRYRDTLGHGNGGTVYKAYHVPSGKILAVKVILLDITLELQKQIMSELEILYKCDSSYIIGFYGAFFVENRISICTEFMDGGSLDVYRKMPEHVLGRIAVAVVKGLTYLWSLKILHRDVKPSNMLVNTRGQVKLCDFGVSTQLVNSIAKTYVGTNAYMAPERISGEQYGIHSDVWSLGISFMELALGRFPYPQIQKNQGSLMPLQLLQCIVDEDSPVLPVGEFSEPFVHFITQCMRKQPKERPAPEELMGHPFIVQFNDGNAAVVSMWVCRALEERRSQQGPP

[9] = Selectivity interaction (KinomeScan (DiscoverX)) EUB0000092b CDK2H; conditions: at 10 µM

EML4-ALK (Homo sapiens), sequence (Q9HC35 whole entry partner): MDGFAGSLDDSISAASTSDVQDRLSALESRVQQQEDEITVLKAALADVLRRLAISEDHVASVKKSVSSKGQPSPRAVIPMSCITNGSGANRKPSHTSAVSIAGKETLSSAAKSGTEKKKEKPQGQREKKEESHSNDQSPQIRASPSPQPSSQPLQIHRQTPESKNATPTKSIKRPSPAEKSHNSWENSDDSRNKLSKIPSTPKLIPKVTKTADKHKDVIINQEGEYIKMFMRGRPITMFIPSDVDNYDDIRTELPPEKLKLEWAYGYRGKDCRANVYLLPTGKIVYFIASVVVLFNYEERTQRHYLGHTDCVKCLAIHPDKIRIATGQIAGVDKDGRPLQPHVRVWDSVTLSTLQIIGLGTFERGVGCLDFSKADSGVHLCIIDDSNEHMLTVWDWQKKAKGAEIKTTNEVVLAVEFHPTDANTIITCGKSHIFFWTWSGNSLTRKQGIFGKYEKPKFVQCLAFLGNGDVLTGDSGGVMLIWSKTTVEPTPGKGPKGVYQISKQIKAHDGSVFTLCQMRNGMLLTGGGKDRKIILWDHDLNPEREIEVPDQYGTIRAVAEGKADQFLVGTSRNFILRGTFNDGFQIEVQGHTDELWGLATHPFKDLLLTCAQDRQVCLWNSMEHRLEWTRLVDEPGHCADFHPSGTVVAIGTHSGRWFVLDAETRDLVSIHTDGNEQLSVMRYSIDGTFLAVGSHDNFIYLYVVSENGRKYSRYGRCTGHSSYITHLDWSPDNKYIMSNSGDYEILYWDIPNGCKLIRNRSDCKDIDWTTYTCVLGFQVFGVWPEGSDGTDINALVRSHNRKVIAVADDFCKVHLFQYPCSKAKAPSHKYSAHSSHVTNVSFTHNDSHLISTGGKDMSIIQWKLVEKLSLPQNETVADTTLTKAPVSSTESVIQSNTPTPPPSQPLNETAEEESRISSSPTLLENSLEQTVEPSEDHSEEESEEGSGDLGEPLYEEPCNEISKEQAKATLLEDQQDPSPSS
EML4-ALK (Homo sapiens), sequence (Q9UM73 19-1620 limits assumed): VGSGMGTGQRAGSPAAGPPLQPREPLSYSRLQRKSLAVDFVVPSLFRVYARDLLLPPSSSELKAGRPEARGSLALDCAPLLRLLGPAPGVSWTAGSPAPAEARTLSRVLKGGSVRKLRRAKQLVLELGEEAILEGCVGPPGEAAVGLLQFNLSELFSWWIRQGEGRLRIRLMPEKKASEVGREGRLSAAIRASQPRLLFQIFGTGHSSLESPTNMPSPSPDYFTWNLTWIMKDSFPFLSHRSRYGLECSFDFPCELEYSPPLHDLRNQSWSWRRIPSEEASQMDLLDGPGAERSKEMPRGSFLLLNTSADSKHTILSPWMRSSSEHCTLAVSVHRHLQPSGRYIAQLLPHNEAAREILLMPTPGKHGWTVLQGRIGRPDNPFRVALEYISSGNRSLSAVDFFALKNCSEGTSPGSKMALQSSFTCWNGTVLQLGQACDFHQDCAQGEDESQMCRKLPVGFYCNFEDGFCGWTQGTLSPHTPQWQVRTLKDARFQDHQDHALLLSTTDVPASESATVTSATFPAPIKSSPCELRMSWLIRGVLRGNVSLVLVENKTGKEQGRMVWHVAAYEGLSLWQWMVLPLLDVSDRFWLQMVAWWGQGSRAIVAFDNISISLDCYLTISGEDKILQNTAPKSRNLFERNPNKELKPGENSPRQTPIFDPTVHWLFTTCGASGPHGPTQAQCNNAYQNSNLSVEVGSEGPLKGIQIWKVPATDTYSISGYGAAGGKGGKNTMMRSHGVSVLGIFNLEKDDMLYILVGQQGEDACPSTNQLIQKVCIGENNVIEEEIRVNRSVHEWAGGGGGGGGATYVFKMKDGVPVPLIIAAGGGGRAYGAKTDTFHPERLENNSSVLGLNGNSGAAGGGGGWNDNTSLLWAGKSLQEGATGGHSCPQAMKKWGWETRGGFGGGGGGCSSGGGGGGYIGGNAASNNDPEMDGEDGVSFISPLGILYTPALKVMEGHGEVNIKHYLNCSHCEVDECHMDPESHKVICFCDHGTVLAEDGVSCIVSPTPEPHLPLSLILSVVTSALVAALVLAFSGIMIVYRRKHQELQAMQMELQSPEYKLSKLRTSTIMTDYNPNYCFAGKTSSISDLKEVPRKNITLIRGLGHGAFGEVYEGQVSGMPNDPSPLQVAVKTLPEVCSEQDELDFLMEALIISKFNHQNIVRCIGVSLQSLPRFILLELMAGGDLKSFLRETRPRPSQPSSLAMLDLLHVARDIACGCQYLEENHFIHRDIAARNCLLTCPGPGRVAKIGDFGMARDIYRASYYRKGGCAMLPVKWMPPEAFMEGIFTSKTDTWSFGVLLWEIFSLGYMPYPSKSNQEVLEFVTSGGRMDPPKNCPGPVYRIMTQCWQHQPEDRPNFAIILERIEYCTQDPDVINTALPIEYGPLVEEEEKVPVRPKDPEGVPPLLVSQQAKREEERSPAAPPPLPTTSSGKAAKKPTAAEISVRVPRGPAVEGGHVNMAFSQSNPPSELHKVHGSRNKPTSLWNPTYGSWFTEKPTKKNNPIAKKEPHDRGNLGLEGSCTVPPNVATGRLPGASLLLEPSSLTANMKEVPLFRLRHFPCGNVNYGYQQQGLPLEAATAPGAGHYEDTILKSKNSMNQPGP
Serine/threonine-protein kinase pim-1, sequence (P11309 whole entry, looked up): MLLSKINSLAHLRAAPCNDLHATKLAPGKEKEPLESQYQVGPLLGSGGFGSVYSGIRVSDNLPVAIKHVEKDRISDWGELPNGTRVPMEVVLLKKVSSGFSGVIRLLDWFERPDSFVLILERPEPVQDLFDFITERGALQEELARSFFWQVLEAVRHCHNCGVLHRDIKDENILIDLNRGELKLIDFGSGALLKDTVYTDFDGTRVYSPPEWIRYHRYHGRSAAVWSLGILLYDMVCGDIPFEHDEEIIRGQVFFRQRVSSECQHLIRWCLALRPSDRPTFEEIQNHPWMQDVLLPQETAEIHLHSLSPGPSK
Dual specificity mitogen-activated protein kinase kinase 1, sequence (Q02750 whole entry): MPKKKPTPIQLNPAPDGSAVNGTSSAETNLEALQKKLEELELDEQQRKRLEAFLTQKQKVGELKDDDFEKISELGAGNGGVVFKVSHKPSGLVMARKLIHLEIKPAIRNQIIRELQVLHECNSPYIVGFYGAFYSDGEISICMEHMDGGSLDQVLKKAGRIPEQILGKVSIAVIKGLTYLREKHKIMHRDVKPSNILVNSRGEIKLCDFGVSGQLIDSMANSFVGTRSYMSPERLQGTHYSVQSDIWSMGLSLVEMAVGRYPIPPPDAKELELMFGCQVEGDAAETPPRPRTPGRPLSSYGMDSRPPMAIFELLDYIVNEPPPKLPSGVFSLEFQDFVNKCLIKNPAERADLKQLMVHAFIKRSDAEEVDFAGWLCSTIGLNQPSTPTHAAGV
Cyclin-dependent kinase 16 (Homo sapiens), sequence (Q00536 whole entry): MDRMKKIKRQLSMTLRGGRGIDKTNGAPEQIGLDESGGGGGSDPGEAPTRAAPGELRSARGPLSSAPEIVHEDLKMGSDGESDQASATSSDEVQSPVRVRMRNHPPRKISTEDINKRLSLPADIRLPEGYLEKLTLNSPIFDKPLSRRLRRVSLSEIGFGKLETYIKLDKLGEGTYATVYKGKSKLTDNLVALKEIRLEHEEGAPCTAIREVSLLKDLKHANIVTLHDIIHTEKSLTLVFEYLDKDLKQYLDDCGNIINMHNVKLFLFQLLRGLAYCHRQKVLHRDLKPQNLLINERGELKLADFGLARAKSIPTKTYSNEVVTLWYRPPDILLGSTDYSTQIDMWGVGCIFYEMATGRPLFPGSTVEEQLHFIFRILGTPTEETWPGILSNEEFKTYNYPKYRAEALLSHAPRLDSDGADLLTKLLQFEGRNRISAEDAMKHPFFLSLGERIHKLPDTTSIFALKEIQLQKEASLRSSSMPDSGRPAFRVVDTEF
Mitogen-activated protein kinase 9, sequence (P45984 whole entry, looked up): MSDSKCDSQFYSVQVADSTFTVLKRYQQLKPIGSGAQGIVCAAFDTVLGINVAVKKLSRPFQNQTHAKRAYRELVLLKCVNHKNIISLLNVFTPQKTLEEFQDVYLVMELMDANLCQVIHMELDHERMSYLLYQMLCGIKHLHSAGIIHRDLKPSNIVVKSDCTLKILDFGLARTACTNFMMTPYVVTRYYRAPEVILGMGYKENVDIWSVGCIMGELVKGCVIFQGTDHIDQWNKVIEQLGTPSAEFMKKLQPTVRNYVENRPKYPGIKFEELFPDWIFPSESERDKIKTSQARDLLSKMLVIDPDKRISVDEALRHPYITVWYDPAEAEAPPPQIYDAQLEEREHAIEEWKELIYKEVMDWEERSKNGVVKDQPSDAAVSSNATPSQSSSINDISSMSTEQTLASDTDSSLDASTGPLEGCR
Phosphatidylinositol 4-kinase beta, sequence (Q9UBF8 2-816 limits assumed): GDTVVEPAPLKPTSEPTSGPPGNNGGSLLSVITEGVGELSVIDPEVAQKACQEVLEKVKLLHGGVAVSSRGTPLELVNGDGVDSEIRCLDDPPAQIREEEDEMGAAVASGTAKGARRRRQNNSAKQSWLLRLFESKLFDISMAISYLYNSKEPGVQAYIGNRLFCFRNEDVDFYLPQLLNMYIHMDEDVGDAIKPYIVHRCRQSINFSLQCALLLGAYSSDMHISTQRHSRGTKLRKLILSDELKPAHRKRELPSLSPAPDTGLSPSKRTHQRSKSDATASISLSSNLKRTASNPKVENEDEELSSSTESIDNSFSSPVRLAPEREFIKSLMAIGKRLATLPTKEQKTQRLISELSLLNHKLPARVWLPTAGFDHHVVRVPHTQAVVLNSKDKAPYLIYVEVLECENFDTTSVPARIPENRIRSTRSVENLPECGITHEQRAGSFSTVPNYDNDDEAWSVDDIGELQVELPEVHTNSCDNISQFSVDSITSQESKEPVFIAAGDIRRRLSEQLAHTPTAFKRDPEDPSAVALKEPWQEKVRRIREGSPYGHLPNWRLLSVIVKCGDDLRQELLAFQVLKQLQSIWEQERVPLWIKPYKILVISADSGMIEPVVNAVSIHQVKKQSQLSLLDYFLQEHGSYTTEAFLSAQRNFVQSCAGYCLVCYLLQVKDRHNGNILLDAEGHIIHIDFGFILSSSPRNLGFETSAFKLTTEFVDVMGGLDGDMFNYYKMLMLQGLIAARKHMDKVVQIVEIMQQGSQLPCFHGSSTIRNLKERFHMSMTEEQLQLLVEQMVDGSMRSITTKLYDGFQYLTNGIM

## COc1cc(N(C)c2ccnc3ccc(C(F)(F)F)cc23)cc(OC)c1OC
[1]
  % binding: 100%

## C=CC(=O)Nc1cccc(C(=O)Nc2ccc(Nc3cc(-c4[nH]c(SC)nc4C)ccn3)cc2)c1
EML4-ALK (Homo sapiens)
  % of control: 93%
[2]; at 1 µM
  % of control: 100%
[2]; at 5 µM
  % of control: 86%

## CN1Cc2nccc(-c3cn(C)nc3-c3ccc(F)cc3)c2C1=O
[3]
  % of inhibition: -4%
[4]
  % of inhibition: 4%

## CC[C@@H]1[C@H](F)C(=O)N[C@@H]1COc1nccc2cc(C(N)=O)c(OC)cc12 [ZIMLOVISERTIB]
[5]
  % of inhibition: 7.7%
[6]
  % of inhibition: -0.3%

## CN(C)CCOc1ccc(-c2nc(-c3ccncc3)c(-c3ccc4c(c3)CC/C4=N\O)[nH]2)cc1
[7]
  % of control: 5.1%
[8]
  % of control: 22%

## CCC(=O)N1CCN(c2ccc(-n3c(=O)ccc4cnc5ccc(-c6cnc7ccccc7c6)cc5c43)cc2C(F)(F)F)CC1
[9]
  % of control: 97%
